According to ChEMBL document CHEMBL5131484, “Design and synthesis of adamantane-1-carbonyl thiourea derivatives as potent and selective inhibitors of h-P2X4 and h-P2X7 receptors: An Emerging therapeutic tool for treatment of inflammation and neurological disorders” (Eur J Med Chem, 2022):

Legend:
[1] = Cytotoxicity against human 1321N1 cells assessed as reduction in cell viability at 50 uM incubated for 24 hrs by MTT assay relative to control; format: functional
[2] = Cytotoxicity against human HEK293 cells assessed as reduction in cell viability at 50 uM incubated for 24 hrs by MTT assay relative to control; format: toxicity, cell-based; settings: read-out: INH
[3] = test system: HeLa; experiment: Cytotoxicity against human HeLa cells assessed as reduction in cell viability at 50 uM incubated for 24 hrs by MTT assay relative to control; format: functional
[4] = target: T1, P2X purinoceptor 4 (Homo sapiens, UniProt Q99571); experiment: Antagonist activity at human P2X4 receptor expressed in human 1321N1 cells assessed as reduction in intracellular Ca2+ influx incubated for 30 mins by Fura-2 AM based fluorescence assay; format: cell-based
T1 sequence (Q99571 whole entry): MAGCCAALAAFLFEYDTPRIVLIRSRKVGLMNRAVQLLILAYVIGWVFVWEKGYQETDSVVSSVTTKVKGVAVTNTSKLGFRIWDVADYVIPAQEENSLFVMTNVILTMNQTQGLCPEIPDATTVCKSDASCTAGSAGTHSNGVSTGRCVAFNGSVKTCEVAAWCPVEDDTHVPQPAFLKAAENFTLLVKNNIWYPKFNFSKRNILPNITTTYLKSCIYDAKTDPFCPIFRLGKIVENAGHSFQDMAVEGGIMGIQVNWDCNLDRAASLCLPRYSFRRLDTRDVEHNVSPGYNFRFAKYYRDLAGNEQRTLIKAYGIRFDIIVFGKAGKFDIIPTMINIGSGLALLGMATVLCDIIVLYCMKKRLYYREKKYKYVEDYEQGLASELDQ

[5] = target: T2, P2X purinoceptor 2 (Homo sapiens) (UniProt Q9UBL9); experiment: Antagonist activity at human P2X2 receptor expressed in human 1321N1 cells assessed as reduction in intracellular Ca2+ influx incubated for 30 mins by Fura-2 AM based fluorescence assay relative to control; format: cell-based
T2 sequence (whole entry): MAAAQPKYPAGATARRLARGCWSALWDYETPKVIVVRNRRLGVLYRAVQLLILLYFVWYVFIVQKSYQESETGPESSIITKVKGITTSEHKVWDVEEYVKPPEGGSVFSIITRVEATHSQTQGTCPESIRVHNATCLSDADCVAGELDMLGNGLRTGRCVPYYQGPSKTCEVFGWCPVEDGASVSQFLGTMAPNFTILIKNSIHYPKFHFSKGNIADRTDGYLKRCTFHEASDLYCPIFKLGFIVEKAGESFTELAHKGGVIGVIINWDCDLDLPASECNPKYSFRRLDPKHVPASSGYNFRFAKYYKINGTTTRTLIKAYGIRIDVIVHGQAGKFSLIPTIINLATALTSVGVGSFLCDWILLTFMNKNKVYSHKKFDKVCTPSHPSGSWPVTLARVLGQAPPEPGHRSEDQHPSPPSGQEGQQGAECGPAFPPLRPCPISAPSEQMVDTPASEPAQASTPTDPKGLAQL

[6] = target: T3, P2X purinoceptor 5 (Homo sapiens, UniProt Q93086); experiment: Antagonist activity at human P2X5 receptor expressed in human 1321N1 cells assessed as reduction in intracellular Ca2+ influx incubated for 30 mins by Fura-2 AM based fluorescence assay relative to control; format: cell-based
[7] = target: T4, P2X purinoceptor 7 (Homo sapiens) (UniProt Q99572); experiment: Antagonist activity at human P2X7 receptor expressed in human 1321N1 cells assessed as reduction in intracellular Ca2+ influx incubated for 30 mins by Fura-2 AM based fluorescence assay relative to control; format: cell-based
T4 sequence (whole entry): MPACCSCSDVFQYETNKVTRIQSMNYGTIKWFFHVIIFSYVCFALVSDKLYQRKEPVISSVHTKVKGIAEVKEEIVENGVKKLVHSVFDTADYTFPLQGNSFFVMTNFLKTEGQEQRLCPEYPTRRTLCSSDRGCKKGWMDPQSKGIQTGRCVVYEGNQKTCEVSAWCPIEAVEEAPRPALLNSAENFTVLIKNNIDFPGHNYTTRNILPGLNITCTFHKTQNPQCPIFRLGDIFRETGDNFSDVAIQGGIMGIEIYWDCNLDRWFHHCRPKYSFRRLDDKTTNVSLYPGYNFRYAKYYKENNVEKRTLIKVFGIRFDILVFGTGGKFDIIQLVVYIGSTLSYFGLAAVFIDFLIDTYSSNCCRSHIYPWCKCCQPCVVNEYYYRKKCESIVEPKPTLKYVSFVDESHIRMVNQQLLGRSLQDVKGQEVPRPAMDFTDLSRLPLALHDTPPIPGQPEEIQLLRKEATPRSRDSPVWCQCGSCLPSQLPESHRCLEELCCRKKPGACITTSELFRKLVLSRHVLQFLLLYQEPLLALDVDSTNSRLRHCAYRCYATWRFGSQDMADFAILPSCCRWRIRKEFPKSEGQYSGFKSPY

[8] = target: T4, P2X purinoceptor 7 (Homo sapiens); experiment: Antagonist activity at human P2X7 receptor expressed in human 1321N1 cells assessed as reduction in ethidium bromide dye uptake at 20 uM preincubated for 15 mins followed by BzATP addition and measured after 30 mins by Ethidium bromide dye based fluorescence plate reader analysis relative to control; format: cell-based; settings: filed as antagonist, time 45.0 min
[9] = target: T5, P2X purinoceptor 7 (Homo sapiens, UniProt Q99572); experiment: Antagonist activity at human P2X7 receptor expressed in human 1321N1 cells assessed as reduction in ethidium bromide dye uptake preincubated for 15 mins followed by BzATP addition and measured after 30 mins by Ethidium bromide dye based fluorescence plate reader analysis; format: cell-based
T5 sequence (Q99572 whole entry): T4 sequence (whole entry)

[10] = target: T6, P2X purinoceptor 4 (Homo sapiens) (UniProt Q99571); experiment: Antagonist activity at human P2X4 receptor expressed in human 1321N1 cells assessed as reduction in intracellular Ca2+ influx incubated for 30 mins by Fura-2 AM based fluorescence assay relative to control; format: cell-based
T6 sequence (whole entry): T1 sequence (Q99571 whole entry)

[11] = target: T3, P2X purinoceptor 5; experiment: Antagonist activity at human P2X5 receptor expressed in human 1321N1 cells assessed as reduction in intracellular Ca2+ influx incubated for 30 mins by Fura-2 AM based fluorescence assay; format: cell-based
[12] = target: T5, P2X purinoceptor 7; experiment: Antagonist activity at human P2X7 receptor expressed in human 1321N1 cells assessed as reduction in intracellular Ca2+ influx incubated for 30 mins by Fura-2 AM based fluorescence assay; format: cell-based

T3 sequence (Q93086 whole entry): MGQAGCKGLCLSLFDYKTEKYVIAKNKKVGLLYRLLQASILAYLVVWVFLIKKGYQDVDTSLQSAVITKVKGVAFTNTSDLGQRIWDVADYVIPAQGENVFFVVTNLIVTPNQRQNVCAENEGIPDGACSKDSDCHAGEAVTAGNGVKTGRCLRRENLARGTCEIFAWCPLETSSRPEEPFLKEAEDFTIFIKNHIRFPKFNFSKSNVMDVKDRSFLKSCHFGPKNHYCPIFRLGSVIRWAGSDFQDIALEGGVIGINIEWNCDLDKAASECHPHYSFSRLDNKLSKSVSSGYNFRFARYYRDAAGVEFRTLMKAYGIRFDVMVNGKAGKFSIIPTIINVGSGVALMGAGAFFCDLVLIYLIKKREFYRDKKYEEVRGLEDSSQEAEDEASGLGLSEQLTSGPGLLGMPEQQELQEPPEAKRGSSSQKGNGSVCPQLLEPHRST

SMILES	inhibition at 50 µM [1] [%]	cytotoxicity at 24 h, 50 µM [2] [%]	inhibition at 50 µM [3] [%]	IC50 [4] [µM]	inhibition ([5]; filed as antagonist) [%]	inhibition [6] [%]	inhibition [7] [%]	inhibition [5] [%]	Emax [8] [%]	IC50 [9] [µM]	inhibition [10] [%]	inhibition ([6]; filed as antagonist) [%]	IC50 [11] [µM]	IC50 [12] [µM]
O=C(NC(=S)Nc1cc(Br)ccc1Br)C12CC3CC(CC(C3)C1)C2	7.43	10.7	4.15	8.34	41	16	11	–	–	–	–	–	–	–
O=C(NC(=S)Nc1cccnc1Cl)C12CC3CC(CC(C3)C1)C2	11.4	4.95	5.21	–	–	25	–	13	63	0.155	–	–	–	–
COc1ccc(NC(=S)NC(=O)C23CC4CC(CC(C4)C2)C3)cc1	4.56	10.6	8.01	–	–	25	0	–	–	–	32	–	–	–
O=C(NC(=S)Nc1ccccc1O)C12CC3CC(CC(C3)C1)C2	10.3	4.22	8.6	–	–	–	–	33	–	–	–	41	–	–
O=C(NC(=S)Nc1cc(Cl)c(O)c(Cl)c1)C12CC3CC(CC(C3)C1)C2	6.18	1.06	5.4	–	–	–	–	–	–	–	–	–	12.3	–
O=C(NC(=S)Nc1cc([N+](=O)[O-])ccc1Cl)C12CC3CC(CC(C3)C1)C2	10.4	6.31	8.66	–	–	32	–	–	–	–	–	–	–	–
Cc1ccc(C(=O)Nc2ccc(S(=O)(=O)O)c3cc(S(=O)(=O)O)cc(S(=O)(=O)O)c23)cc1NC(=O)c1cccc(NC(=O)Nc2cccc(C(=O)Nc3cc(C(=O)Nc4ccc(S(=O)(=O)O)c5cc(S(=O)(=O)O)cc(S(=O)(=O)O)c45)ccc3C)c2)c1 [SURAMIN]	30.6	48	28.7	–	–	–	–	–	–	–	–	–	–	–
O=C(O)C12CC3CC(CC(C3)C1)C2	–	–	–	–	–	15	11	12	–	–	20	–	–	–
O=C(NC(=S)Nc1ccc(Br)cc1)C12CC3CC(CC(C3)C1)C2	5.4	13.7	7.19	–	–	–	–	35	–	–	21	42	–	–
O=C(NC(=S)Nc1cccc(O)c1)C12CC3CC(CC(C3)C1)C2	5.67	6.95	11	–	–	–	19	33	–	–	36	44	–	–
COc1cccc(NC(=S)NC(=O)C23CC4CC(CC(C4)C2)C3)c1	6.53	13.2	7.21	–	–	–	15	–	–	–	38	45	–	–
COc1ccc(NC(=S)NC(=O)C23CC4CC(CC(C4)C2)C3)cc1OC	13.5	7.2	14.3	–	–	–	–	–	–	–	–	–	16.5	–
NS(=O)(=O)c1ccccc1NC(=S)NC(=O)C12CC3CC(CC(C3)C1)C2	12.9	3.77	9.5	4.19	–	–	–	18	58	0.796	–	43	–	0.699
Cc1cc(Br)ccc1NC(=S)NC(=O)C12CC3CC(CC(C3)C1)C2	2.2	7.02	4.1	–	–	16	18	22	–	–	35	–	–	–
CN(C)CCCNC(=S)NC(=O)C12CC3CC(CC(C3)C1)C2	5.45	10.4	7.21	–	–	5	10	2	–	–	0	–	–	–
Cc1ccc(NC(=S)NC(=O)C23CC4CC(CC(C4)C2)C3)c(Br)c1	7.29	9.46	15.4	–	–	–	–	–	–	–	–	–	9.04	–
CC(C)c1cc(Br)c(NC(=O)Nc2cccnc2)c(Br)c1	20.2	2.85	9.12	–	–	–	–	–	–	–	–	–	–	–
O=C(NC(=S)Nc1ccc(O)cc1)C12CC3CC(CC(C3)C1)C2	7.21	3.02	8.66	–	–	26	–	38	68	1.26	33	–	–	–
O=C(NC(=S)Nc1cc(Br)cc(C(F)(F)F)c1)C12CC3CC(CC(C3)C1)C2	5.37	6.85	11.9	4.53	–	20	–	5	–	–	–	–	–	4.02
